Source: patent publication US12065444B2, “Substituted tetrazolo[1,5-a]pyrazines and tetrazolo[1,5-c]pyrimidines as adenosine receptor antagonists” (Crossignal Therapeutics, Inc., priority 2021, dated 2024)

Target: human adenosine A2a receptor (Homo sapiens, UniProt P29274)
Test: Adenosine A2a receptor whole cell cyclic AMP assay
Details: for IC50: HEK293 cells stably expressing human A2a, 1 hour compound treatment; for inhibition at 10 µM: HEK293, 1 h, read-out: A2a @ 100 μM Adenosine (A2a cAMP IC50)
[1] = A2a @ 1 μM Adenosine (A2a cAMP IC50), 1 μM adenosine
[2] = A2a @ 100 μM Adenosine (A2a cAMP IC50), 100 μM adenosine

human adenosine A2a receptor, sequence (P29274 whole entry): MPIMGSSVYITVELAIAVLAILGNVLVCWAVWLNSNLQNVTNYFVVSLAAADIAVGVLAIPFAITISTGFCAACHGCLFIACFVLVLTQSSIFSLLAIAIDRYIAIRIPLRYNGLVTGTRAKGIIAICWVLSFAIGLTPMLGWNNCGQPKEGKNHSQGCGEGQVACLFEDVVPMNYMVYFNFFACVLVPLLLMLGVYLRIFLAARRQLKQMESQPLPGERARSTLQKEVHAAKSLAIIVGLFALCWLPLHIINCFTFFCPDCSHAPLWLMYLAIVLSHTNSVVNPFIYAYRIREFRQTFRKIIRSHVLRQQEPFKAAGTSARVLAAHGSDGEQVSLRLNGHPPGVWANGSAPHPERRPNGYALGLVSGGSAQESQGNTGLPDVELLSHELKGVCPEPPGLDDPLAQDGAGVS

| Structure (SMILES) | IC50 [1] | IC50 [2] | inhibition at 10 µM |
| --- | --- | --- | --- |
| N#Cc1cc(-c2c(-c3ccc(F)cc3)nc(N)n3nnnc23)cc(Cl)n1 [1-41, 4-(5-amino-7-(4-fluorophenyl)tetrazolo[1,5-c]pyrimidin-8-yl)-6-chloropicolinonitrile] | 100 to 1000 nM |  |  |
| Cn1cnc2ccc(-c3c(-c4ccc(C#N)cc4)nc(N)n4nnnc34)cc21 [1-52, 4-(5-amino-8-(1-methyl-1H-benzo[d]imidazol-6-yl)tetrazolo[1,5-c]pyrimidin-7-yl)benzonitrile] | 100 to 1000 nM |  |  |
| COc1ccc(-c2nc(N)c3nnnn3c2-c2ccc3ncc(C)n3c2)cc1 [1-56, 6-(4-methoxyphenyl)-5-(3-methylimidazo[1,2-a]pyridin-6-yl)tetrazolo[1,5-a]pyrazin-8-amine] | 100 to 1000 nM | > 1000 nM |  |
| Cc1cc(-c2c(-c3ccccc3)nc(N)c3nnnn23)cc(Cl)n1 [1-32, 5-(2-chloro-6-methylpyridin-4-yl)-6-phenyltetrazolo[1,5-a]pyrazin-8-amine] | 100 to 1000 nM |  |  |
| Cc1cn2cc(-c3c(-c4ccc(F)cc4)nc(N)c4nnnn34)cc(F)c2n1 [1-21, 5-(8-fluoro-2-methylimidazo[1,2-a]pyridin-6-yl)-6-(4-fluorophenyl)tetrazolo[1,5-a]pyrazin-8-amine] | > 1000 nM |  | < 25% |
| Cc1cc(-c2c(-c3ccc(F)cc3)nc(N)n3nnnc23)cc(C(F)F)n1 [1-58, 8-(2-(difluoromethyl)-6-methylpyridin-4-yl)-7-(4-fluorophenyl)tetrazolo[1,5-c]pyrimidin-5-amine] | 100 to 1000 nM | > 1000 nM |  |
| COc1cc(-c2c(-c3ccc(F)cc3)nc(N)c3nnnn23)cc2cccnc12 [1-5, 6-(4-fluorophenyl)-5-(8-methoxyquinolin-6-yl)tetrazolo[1,5-a]pyrazin-8-amine] | 100 to 1000 nM |  |  |
| Cc1ccnc2ccc(-c3c(-c4ccccc4C#N)nc(N)c4nnnn34)cc12 [1-49, 2-(8-amino-5-(4-methylquinolin-6-yl)tetrazolo[1,5-a]pyrazin-6-yl)benzonitrile] | 100 to 1000 nM |  |  |
| Nc1nc(-c2ccc(F)cc2)c(-c2cc(F)c3ncccc3c2)n2nnnc12 [1-19, 6-(4-fluorophenyl)-5-(8-fluoroquinolin-6-yl)tetrazolo[1,5-a]pyrazin-8-amine] | 100 to 1000 nM | > 1000 nM |  |
| Cc1cc(-c2c(-c3ccc(F)cc3)nc(N)c3nnnn23)cc(Cl)n1 [1-1, 5-(2-chloro-6-methylpyridin-4-yl)-6-(4-fluorophenyl)tetrazolo[1,5-a]pyrazin-8-amine] | 100 to 1000 nM |  |  |
| Nc1nc(-c2ccc(F)cc2)c(-c2ccc3nc[nH]c3c2)c2nnnn12 [1-42, 8-(1H-benzo[d]imidazol-6-yl)-7-(4-fluorophenyl)tetrazolo[1,5-c]pyrimidin-5-amine] | 100 to 1000 nM |  |  |
| Cn1cc(-c2c(-c3ccc(F)cc3)nc(N)n3nnnc23)ccc1=O [1-29, 5-(5-amino-7-(4-fluorophenyl)tetrazolo[1,5-c]pyrimidin-8-yl)-1-methylpyridin-2(1H)-one] | 100 to 1000 nM |  |  |
| Cc1cc(-c2nc(N)c3nnnn3c2-c2ccc(F)cc2)cc(Cl)n1 [1-2, 6-(2-chloro-6-methylpyridin-4-yl)-5-(4-fluorophenyl)tetrazolo[1,5-a]pyrazin-8-amine] | > 1000 nM |  |  |
| Cc1cc(-c2c(-c3cccc(F)c3)nc(N)c3nnnn23)cc(Cl)n1 [1-27, 5-(2-chloro-6-methylpyridin-4-yl)-6-(3-fluorophenyl)tetrazolo[1,5-a]pyrazin-8-amine] | 100 to 1000 nM |  |  |
| Nc1nc(-c2ccc(F)cc2)c(-c2cc(Cl)nc(C(F)(F)F)c2)n2nnnc12 [1-55, 5-(2-chloro-6-(trifluoromethyl)pyridin-4-yl)-6-(4-fluorophenyl)tetrazolo[1,5-a]pyrazin-8-amine] | 100 to 1000 nM |  | < 25% |
| Cc1ccnc2ccc(-c3c(-c4ccc(C#N)cc4)nc(N)c4nnnn34)cc12 [1-44, 4-(8-amino-5-(4-methylquinolin-6-yl)tetrazolo[1,5-a]pyrazin-6-yl)benzonitrile] | < 100 nM |  |  |
| Cc1ccnc2ccc(-c3c(-c4ccncc4)nc(N)c4nnnn34)cc12 [1-46, 5-(4-methylquinolin-6-yl)-6-(pyridin-4-yl)tetrazolo[1,5-a]pyrazin-8-amine] | 100 to 1000 nM |  |  |
| Cc1cc(-c2c(-c3ccc(F)cc3)nc(N)c3nnnn23)cc(C(F)F)n1 [1-54, 5-(2-(difluoromethyl)-6-methylpyridin-4-yl)-6-(4-fluorophenyl)tetrazolo[1,5-a]pyrazin-8-amine] | 100 to 1000 nM |  | < 25% |
| Cc1cnc2c(Cl)cc(-c3c(-c4ccc(F)cc4)nc(N)c4nnnn34)cn12 [1-24, 5-(8-chloro-3-methylimidazo[1,2-a]pyridin-6-yl)-6-(4-fluorophenyl)tetrazolo[1,5-a]pyrazin-8-amine] | 100 to 1000 nM | 100 to 1000 nM |  |
| Cc1cc(-c2c(-c3ccc(F)cc3)nc(N)n3nnnc23)cc(Cl)n1 [1-33, 8-(2-chloro-6-methylpyridin-4-yl)-7-(4-fluorophenyl)tetrazolo[1,5-c]pyrimidin-5-amine] | 100 to 1000 nM |  |  |
| COc1ccc(-c2nc(N)c3nnnn3c2-c2ccc3ncn(C)c3c2)cc1 [1-53, 6-(4-methoxyphenyl)-5-(1-methyl-1H-benzo[d]imidazol-6-yl)tetrazolo[1,5-a]pyrazin-8-amine] | < 100 nM |  | < 25% |
| Nc1nc(-c2ccc(F)cc2)c(-c2ccc3nccc(Cl)c3c2)c2nnnn12 [1-35, 8-(4-chloroquinolin-6-yl)-7-(4-fluorophenyl)tetrazolo[1,5-c]pyrimidin-5-amine] | < 100 nM |  |  |
| Cc1ccnc2ccc(-c3c(-c4cccnc4)nc(N)c4nnnn34)cc12 [1-47, 5-(4-methylquinolin-6-yl)-6-(pyridin-3-yl)tetrazolo[1,5-a]pyrazin-8-amine] | 100 to 1000 nM |  |  |
| Cc1cnc2ccc(-c3c(-c4ccc(C#N)cc4)nc(N)c4nnnn34)cn12 [1-51, 4-(8-amino-5-(3-methylimidazo[1,2-a]pyridin-6-yl)tetrazolo[1,5-a]pyrazin-6-yl)benzonitrile] | 100 to 1000 nM |  |  |
| Cc1cc(-c2c(-c3ccccc3F)nc(N)c3nnnn23)cc(Cl)n1 [1-26, 5-(2-chloro-6-methylpyridin-4-yl)-6-(2-fluorophenyl)tetrazolo[1,5-a]pyrazin-8-amine] | 100 to 1000 nM |  |  |
| COc1ccc(-c2nc(N)n3nnnc3c2-c2cc(Cl)nc(C(F)(F)F)c2)cc1 [1-59, 8-(2-chloro-6-(trifluoromethyl)pyridin-4-yl)-7-(4-methoxyphenyl)tetrazolo[1,5-c]pyrimidin-5-amine] | 100 to 1000 nM | > 1000 nM |  |
| Cc1cc(-c2c(-c3ccc(F)cc3)nc(N)n3nnnc23)cc(C)n1 [1-28, 8-(2,6-dimethylpyridin-4-yl)-7-(4-fluorophenyl)tetrazolo[1,5-c]pyrimidin-5-amine] | < 100 nM |  | < 25% |

Now from value to compound:

| IC50 [1] | IC50 [2] | inhibition at 10 µM | Structure (SMILES) |
| --- | --- | --- | --- |
| < 100 nM |  | < 25% | Nc1nc(-c2ccc(F)cc2)c(-c2ccc3ncccc3c2)n2nnnc12 [1-11, 6-(4-fluorophenyl)-5-(quinolin-6-yl)tetrazolo[1,5-a]pyrazin-8-amine] |
| 100 to 1000 nM |  | < 25% | Nc1nc(-c2ccc(F)cc2)c(-c2cc3cnccc3s2)n2nnnc12 [1-16, 6-(4-fluorophenyl)-5-(thieno[3,2-c]pyridin-2-yl)tetrazolo[1,5-a]pyrazin-8-amine] |
| > 1000 nM |  |  | Cn1cc(-c2c(-c3ccc(F)cc3)nc(N)c3nnnn23)ccc1=O [1-4, 5-(8-amino-6-(4-fluorophenyl)tetrazolo[1,5-a]pyrazin-5-yl)-1-methylpyridin-2(1H)-one] |
| 100 to 1000 nM |  | < 25% | Nc1nc(-c2ccc(F)cc2)c(-c2ccc3nccn3c2)n2nnnc12 [1-9, 6-(4-fluorophenyl)-5-(imidazo[1,2-a]pyridin-6-yl)tetrazolo[1,5-a]pyrazin-8-amine] |
| 100 to 1000 nM |  | < 25% | Nc1nc(-c2ccc(F)cc2)c(-c2cc(Cl)c3nccn3c2)n2nnnc12 [1-17, 5-(8-chloroimidazo[1,2-a]pyridin-6-yl)-6-(4-fluorophenyl)tetrazolo[1,5-a]pyrazin-8-amine] |
| > 1000 nM |  | < 25% | Cc1nc2ccc(-c3c(-c4ccc(F)cc4)nc(N)c4nnnn34)cn2n1 [1-18, 6-(4-fluorophenyl)-5-(2-methyl-[1,2,4]triazolo[1,5-a]pyridin-6-yl)tetrazolo[1,5-a]pyrazin-8-amine] |
| 100 to 1000 nM |  | < 25% | Nc1nc(-c2ccc(F)cc2)c(-c2ccc3ncsc3c2)n2nnnc12 [1-12, 5-(benzo[d]thiazol-6-yl)-6-(4-fluorophenyl)tetrazolo[1,5-a]pyrazin-8-amine] |
| > 1000 nM |  |  | Nc1nc(-c2ccc(F)cc2)c(-c2ccc3ncnn3c2)n2nnnc12 [1-8, 5-([1,2,4]triazolo[1,5-a]pyridin-6-yl)-6-(4-fluorophenyl)tetrazolo[1,5-a]pyrazin-8-amine] |
| < 100 nM |  | < 25% | N#Cc1cnc2ccc(-c3c(-c4ccc(F)cc4)nc(N)c4nnnn34)cn12 [1-22, 6-(8-amino-6-(4-fluorophenyl)tetrazolo[1,5-a]pyrazin-5-yl)imidazo[1,2-a]pyridine-3-carbonitrile] |
| 100 to 1000 nM |  |  | Nc1nc(-c2ccc(F)cc2)c(-c2ccc3ncoc3c2)n2nnnc12 [1-10, 5-(benzo[d]oxazol-6-yl)-6-(4-fluorophenyl)tetrazolo[1,5-a]pyrazin-8-amine] |
| 100 to 1000 nM |  | < 25% | Nc1nc(-c2ccc(F)cc2)c(-c2cc(F)c3nccn3c2)n2nnnc12 [1-14, 5-(8-fluoroimidazo[1,2-a]pyridin-6-yl)-6-(4-fluorophenyl)tetrazolo[1,5-a]pyrazin-8-amine] |
| < 100 nM |  |  | Nc1nc(-c2ccc(F)cc2)c(-c2ccc3ncc(Cl)n3c2)n2nnnc12 [1-23, 5-(3-chloroimidazo[1,2-a]pyridin-6-yl)-6-(4-fluorophenyl)tetrazolo[1,5-a]pyrazin-8-amine] |
| 100 to 1000 nM |  | < 25% | Nc1nc(-c2ccc(F)cc2)c(-c2ccc3ncncc3c2)n2nnnc12 [1-15, 6-(4-fluorophenyl)-5-(quinazolin-6-yl)tetrazolo[1,5-a]pyrazin-8-amine] |
